Residues, ends and D or L forms follow the SMILES beside them.
Columns and labels:
4T1-luc cells = assay: 4T1-luc metastatic breast cancer model in BALB/c mice; type: in vivo; settings: BALB/c mice, 2, 10 or 50 mg/kg, 7 day per week during 10 days
Source text: FIG. 5: Kindpep1 reduces tumor growth and metastatic spread in breast cancer in vivo. A. Diagram presenting the course of the experiment. B. Corresponding relative tumor growth graph to bioluminescence images of tumors at day 25. C. Corresponding graph showing the quantification of the total area of metastatic nodules found in the different groups of mice to bioluminescence images of metastasis at day 25. Area ph/s/group stands for area photon/second/group.
4T1-luc model: 1×10^5 4T1-luc cells were inoculated subcutaneously in the flanks of 6-week old female BALB/c mice (n=28). Eleven days after tumor cell inoculation, […] mice were randomly assigned to receive intraperitoneal injection of Kindpep1 (2, 10 or 50 mg/kg) or placebo (PBS). The tumor growth and the progression of metastatic lesions were also weekly monitored by bioluminescence imaging of animals using the Nightowl imaging system. On day 25 after tumor cell inoculation, anesthetized mice were sacrificed by cervical dislocation.
These observations prompted the investigation of the effects of Kindpep1 in vivo. […] Thus, the effects of Kindpep1 on tumor dissemination in a metastatic breast cancer model was studied. 4T1 cells were used because they have a high Kindlin-1 expression and have been also described to form lung metastasis in vivo. […]

[1] = tested on: triple negative breast cancer PDX; assay: Triple negative breast cancer patient derived xenograft (PDX) model; type: in vivo; settings: nude mice, 10 mg/Kg intraperitoneal 5 days per week
Experimental: FIG. 6: Kindpep1 reduces the metastatic spread in a breast cancer PDX model. A. Diagram presenting the course of the experiment. B Quantification of the number of metastatic nodules found in the lungs of control and Kindpep1 treated mice. Mean±SEM are represented. Statistical analyses were performed by a t-test.
The triple negative breast cancer PDX model expressing high levels of Kindlin-1 was obtained from the Laboratoire d'Investigation Pré-clinique. Informed consent was obtained from patient before xenograft establishment. When tumor reached a volume of 60 to 200 mm^3, mice were randomly assigned to the control or treated group. Kindpep1 was administrated by intraperitoneal injection at a dose of 10 mg/kg 5 times a week. The vehicle alone (Nacl 0.9%) was administered to the control group following the same treatment regimen as with the drug. The control and treated group consisted of 10 mice each.
Then, a triple negative breast cancer patient derived xenograft (PDX) model previously characterized as highly metastatic and presenting high expression levels of Kindlin-1 was chosen. Tumor fragments were grafted into the interscapular fat pad of female nude immunodeficient mice and 5 days later the treatment started. […] The treatment was administered by intraperitoneal injections 5 days per week and tumor growth was monitored until reaching the ethical size, i.e. 2 cm^3 (FIG. 6A). […]

[2] = tested on: H358 lung cancer cell line; assay: NCI-H358 KRAS-dependent lung cancer xenograft mouse model; type: in vivo; settings: 10 mg/Kg intraperitoneal 5 days per week
Experimental: FIG. 9: Kindpep decreases tumor growth of KRAS-dependent tumors in vivo. A. Diagram presenting the course of the experiment. B. Scatter plot showing the tumor volume of the different mice of the control and Kindpep1 treated groups, at the end of the treatment. Mean±SD are represented (*p<0.05). C. Graph monitoring tumor growth of control and Kindpep1 treated mice during the course of the experiment. Mean±SD are represented.
NCI-H358 model: 1×10^5 cells were injected subcutaneously in the flanks of 6-week old female BALB/c mice (n=10 mice for each control and treated groups). Tumor volume was measured with caliper 3 times a week. […] Tumor volumes were calculated as: Volume (cm^3)=a×b^2/2 (a and b are the two registered perpendicular diameters a>b). Tumor growth inhibition (TGI) was calculated using the following formula [1−(Vft−V0t)/(Vfc−V0c))]*100 where Vft=final volume of the treated group (at the end of the treatment); Vot=initial volume of the treatment group (at the beginning of the treatment); Vfc=final volume of the control group (at the end of the treatment); V0c=initial volume of the control group (at the beginning of the treatment).
Finally, inventors wanted to validate in vivo the impact of Kindpep1 treatment in KRAS-dependent tumors. […] The treatment was administered by intraperitoneal injections 5 days per week and tumor growth was monitored for 50 days (FIG. 9A).

β1-integrin = molecular target: T1, β1-integrin (Homo sapiens, UniProt P05556); assay: Flow cytometry of cell-surface active β1-integrin (9EG7) in MDA MB 231 cells; type: cell-based; settings: MDA MB 231, 2 mM MnCl2, positive control
T1 construct: endogenous in cells; host or cells: MDA MB 231 human breast cancer cells
Experimental: FIG. 3: Kindpep1 reduces β1-integrin activation. Fluorescence activated sorter (FACS) histograms (top) and the corresponding bar graphs showing the mean fluorescence intensity (MFI) of cell-surface active β-1 integrin (9EG7 staining) of MDA MB 231 cells untreated, treated with Kindpep1 (200 μM) for 15 h or treated with 2 mM MnCl2.
To quantify the expression levels of integrins, cultured cells were trypsinized, washed and incubated for 1 h at 4° C. in phosphate-buffered saline (PBS) containing 150 mM NaCl and 1% BSA with the rat anti-1 integrin (9EG7 clone, 1:300) primary antibodies obtained from BD Biosciences. Cells were then washed 3 times, incubated with Alexa Fluor 488-conjugated secondary antibody for 1 h at 4° C. and washed. 1×10^4 cells were analyzed on a FACS Calibur. The mean fluorescence intensity of each sample was obtained using the Flowing software 2.
The effect of Kindpep1 on β1-integrin activation was confirmed by performing the same immunofluorescence assays using the human breast cancer cell line MDA MB 231, characterized by a high Kindlin-1 protein endogeneous expression.

[3] = molecular target: β1-integrin of 168FARN mouse breast cancer cells (endogenous) (mouse) (UniProt P09055); assay: cell-based or functional assay
β1-integrin of 168FARN mouse breast cancer cells (endogenous) (mouse), sequence (P09055 21-798): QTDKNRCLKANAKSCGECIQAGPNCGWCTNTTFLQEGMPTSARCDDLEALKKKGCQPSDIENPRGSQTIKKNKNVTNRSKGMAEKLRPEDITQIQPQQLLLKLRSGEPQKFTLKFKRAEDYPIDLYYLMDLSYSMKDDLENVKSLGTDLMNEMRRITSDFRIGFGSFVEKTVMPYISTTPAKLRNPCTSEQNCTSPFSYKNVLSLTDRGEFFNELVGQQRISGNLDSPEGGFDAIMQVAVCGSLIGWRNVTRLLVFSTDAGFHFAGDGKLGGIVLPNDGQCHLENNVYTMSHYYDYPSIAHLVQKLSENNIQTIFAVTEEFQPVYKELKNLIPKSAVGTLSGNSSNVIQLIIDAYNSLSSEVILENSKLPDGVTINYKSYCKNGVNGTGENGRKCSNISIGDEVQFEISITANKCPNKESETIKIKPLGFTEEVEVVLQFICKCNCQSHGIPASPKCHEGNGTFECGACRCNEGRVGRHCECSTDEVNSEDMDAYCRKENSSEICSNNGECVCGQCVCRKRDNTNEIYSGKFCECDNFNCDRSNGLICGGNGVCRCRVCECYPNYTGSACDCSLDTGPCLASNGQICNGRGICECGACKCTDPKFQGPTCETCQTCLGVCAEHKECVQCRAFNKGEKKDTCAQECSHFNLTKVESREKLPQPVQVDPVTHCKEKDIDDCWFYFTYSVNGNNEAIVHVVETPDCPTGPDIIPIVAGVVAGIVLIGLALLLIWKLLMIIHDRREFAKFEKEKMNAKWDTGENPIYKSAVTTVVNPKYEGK

T1 sequence (P05556 21-798): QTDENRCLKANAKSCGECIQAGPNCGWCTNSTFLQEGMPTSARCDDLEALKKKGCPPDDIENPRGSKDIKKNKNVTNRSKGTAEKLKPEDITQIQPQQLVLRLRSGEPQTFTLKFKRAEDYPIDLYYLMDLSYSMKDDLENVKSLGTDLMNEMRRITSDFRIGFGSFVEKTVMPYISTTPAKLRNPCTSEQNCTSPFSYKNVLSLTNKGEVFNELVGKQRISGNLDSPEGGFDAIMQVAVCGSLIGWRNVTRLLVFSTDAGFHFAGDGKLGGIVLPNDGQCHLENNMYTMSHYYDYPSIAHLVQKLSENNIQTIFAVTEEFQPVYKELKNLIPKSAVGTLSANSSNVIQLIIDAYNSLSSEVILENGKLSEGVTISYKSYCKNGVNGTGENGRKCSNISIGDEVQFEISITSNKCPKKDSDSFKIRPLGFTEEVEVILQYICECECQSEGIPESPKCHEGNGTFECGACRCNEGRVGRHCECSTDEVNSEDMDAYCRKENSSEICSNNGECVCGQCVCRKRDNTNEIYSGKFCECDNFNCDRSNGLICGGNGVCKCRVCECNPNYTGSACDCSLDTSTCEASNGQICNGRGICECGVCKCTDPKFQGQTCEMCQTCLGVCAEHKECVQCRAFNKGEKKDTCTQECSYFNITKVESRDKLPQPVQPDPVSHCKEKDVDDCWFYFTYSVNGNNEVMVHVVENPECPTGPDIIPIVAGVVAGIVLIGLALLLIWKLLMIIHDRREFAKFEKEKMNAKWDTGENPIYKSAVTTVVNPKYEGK

CC[C@H](C)[C@H](NC(=O)[C@H](CCCCN)NC(=O)[C@H](CCCCN)NC(=O)[C@H](CCCCN)NC(=O)[C@H](CCCCN)NC(=O)[C@@H](N)C(C)C)C(=O)N[C@@H](CCCCN)C(=O)N[C@@H](C)C(=O)N[C@@H](CCC(=O)O)C(=O)N[C@H](C(=O)N[C@@H](CCCCN)C(=O)N[C@H](C(=O)N[C@@H](CO)C(=O)N[C@@H](Cc1ccccc1)C(=O)N[C@@H](CC(C)C)C(=O)N[C@@H](CCCNC(=N)N)C(=O)N[C@@H](CCSC)C(=O)N[C@@H](CCCCN)C(=O)N[C@@H](CC(N)=O)C(=O)N[C@@H](CCCNC(=N)N)C(=O)N[C@@H](CC(N)=O)C(=O)N[C@@H](CO)C(=O)N[C@@H](C)C(=O)N[C@@H](CO)C(=O)N[C@@H](CCC(N)=O)C(=O)N[C@H](C(=O)N[C@@H](C)C(=O)N[C@@H](CO)C(=O)N[C@@H](CO)C(=O)N[C@@H](CC(C)C)C(=O)O)C(C)C)[C@@H](C)CC)[C@@H](C)CC [Kindpep1] (H-VKKKKIKAEIKISFLRMKNRNSASQVASSL-OH)
death during the treatment (4T1-luc cells): no death was observed
side effects (4T1-luc cells): no any side effects was detected
death during the treatment [1]: no death was observed
side effects [1]: no side effects were detected
toxicities in nude mice [2]: without apparent toxicities

[Cl][Mn][Cl] [MnCl2]
levels of active β1-integrin on the cell surface (flow cytometry, 9EG7) (β1-integrin): increase levels of active β1-integrin

wild-type Kindlin-1 expressed in 168FARN cells (from UniProt Q9BQL6 1-677)
velocity of cell migration of 168FARN cells in 3D collagen matrix (time-lapse tracking) [3]: 3.8 fold

Source: US20250163113A1, “PEPTIDES TARGETING THE INTERACTION BETWEEN KINDLIN-1 AND Beta-INTEGRIN” (INSTITUT CURIE, priority 2022, published 2025)
